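Step 1: Grow cells in 96-well plates. Step 2: Expose to compound for 48 hours at 5 concentrations. Step 3: Interpolate endpoints linearly; if unreached, use highest concentration. TGI marks complete inhibition of growth.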
Assays:
Assay in all cases: NCI anticancer screen, dose series, 48 h
SF-539 CNS = system: SF-539 CNS
EKVX NSCLC = system: EKVX NSCLC
SF-295 CNS = system: SF-295 CNS
NCI-H460 lung = system: NCI-H460 lung
OVCAR-3 ovarian = system: OVCAR-3 ovarian
CAKI-1 renal = system: CAKI-1 renal
M14 melanoma = system: M14 melanoma
NCI-H226 lung = system: NCI-H226 lung
OVCAR-8 ovarian = system: OVCAR-8 ovarian
HS 578T breast = system: HS 578T breast
SK-MEL-2 melanoma = system: SK-MEL-2 melanoma
MCF7 breast = system: MCF7 breast
UO-31 renal = system: UO-31 renal
HT29 colon = system: HT29 colon
TK-10 renal = system: TK-10 renal
K-562 leukemia = system: K-562 leukemia
ACHN renal = system: ACHN renal
UACC-62 melanoma = system: UACC-62 melanoma
DU-145 prostate = system: DU-145 prostate
HL-60(TB) leukemia = system: HL-60(TB) leukemia
SR leukemia = system: SR leukemia
SN12C renal = system: SN12C renal
IGROV1 ovarian = system: IGROV1 ovarian
CCRF-CEM leukemia = system: CCRF-CEM leukemia
T-47D breast = system: T-47D breast
A498 renal = system: A498 renal
SW-620 colon = system: SW-620 colon
SK-MEL-28 melanoma = system: SK-MEL-28 melanoma
LOX IMVI melanoma = system: LOX IMVI melanoma
SK-OV-3 ovarian = system: SK-OV-3 ovarian
SF-268 CNS = system: SF-268 CNS
HCT-15 colon = system: HCT-15 colon
OVCAR-4 ovarian = system: OVCAR-4 ovarian
UACC-257 melanoma = system: UACC-257 melanoma
NCI-H23 lung = system: NCI-H23 lung
HOP-62 NSCLC = system: HOP-62 NSCLC
COLO 205 colon = system: COLO 205 colon
BT-549 breast = system: BT-549 breast
MOLT-4 leukemia = system: MOLT-4 leukemia
MDA-MB-231 breast = system: MDA-MB-231 breast
PC-3 prostate = system: PC-3 prostate
SK-MEL-5 melanoma = system: SK-MEL-5 melanoma
MDA-N = system: MDA-N
RPMI-8226 leukemia = system: RPMI-8226 leukemia
NCI/ADR-RES ovarian = system: NCI/ADR-RES ovarian
OVCAR-5 ovarian = system: OVCAR-5 ovarian
SNB-19 CNS = system: SNB-19 CNS
HCT-116 colon = system: HCT-116 colon
NCI-H522 lung = system: NCI-H522 lung
MDA-MB-435 = system: MDA-MB-435
U251 CNS = system: U251 CNS
786-0 renal = system: 786-0 renal
A549 NSCLC = system: A549 NSCLC
SNB-75 CNS = system: SNB-75 CNS
MALME-3M melanoma = system: MALME-3M melanoma
KM12 colon = system: KM12 colon
RXF 393 renal = system: RXF 393 renal
HCC-2998 colon = system: HCC-2998 colon
HOP-92 NSCLC = system: HOP-92 NSCLC

Measured: TGI

CCNCC(O)c1ccc(N)c([N+](=O)[O-])c1 (configuration not stated)
not listed: MALME-3M melanoma | KM12 colon | RXF 393 renal | HCC-2998 colon | HOP-92 NSCLC
> 100 µM: all other assays above

CCC(=O)NCCc1c[nH]c2ccc(OC)cc12
not listed: HL-60(TB) leukemia
> 100 µM: all other assays above

From PubChem BioAssay (NCI)
